Test results: patent US9029383B2, “Methods of treatment of skin ulcers” (The Trustees Of The University of Pennsylvania, priority 2007, dated 2015)
Entries after “also recorded” stand apart in the source; their conditions may differ.

Legend:
[1] = system: DM/HC pigs (skin abscess); assay: Skin abscess occurrence in diabetic/hypercholesterolemic (DM/HC) pig model; assay type: in vivo; conditions: for Development of skin abscess over the treatment period: DM/HC pigs treated for 6 months; for Further or recurring abscess after initiation of daily inhibitor treatment in pigs that already had an abscess: pigs #948 and #963, daily single dose
Description: A diabetic/diabetic hypercholestrolemic pig model (DM/HC) was developed that mimics human-like diabetes and human-like atherosclerosis. Farm pigs weighing 25-30 kg and aged ˜4 months were made diabetic with a single intravenous injection of 125 mg/kg of streptozotocin (Sicor Pharmaceuticals, Irvine, Calif.). After stabilized for 1-2 weeks, the animals with elevated levels of plasma glucose (>150 mg/dl) were fed with atherogenic (high-fat) diet as shown in Table 1 (Animal Specialties, Quakertown, Pa.) to achieve a cholesterol level of approximately 250-800 mg/dl.
For the 0.5% cholesterol diet the components are similar with the exception of 0.5% cholesterol and 20% lard. The animals were Yorkshire pigs that were castrated males at the age of […] and were obtained from Archer Farms, Darlington, Md. These feeds were prepared by Animal Specialties and Provisions, LLC, Quakertown, Pa. USA.
On days 1-2, animals were fed normal chow, followed by on days 3-14 animals were fed a diet of 0.5% cholesterol, 2% lard and on day 14, cholesterol levels were measured and the diet adjusted accordingly to increase to 2% cholesterol, 10% lard if cholesterol is <300 mg/dl. Following induction of DM/HC, cholesterol was measured until cholesterol levels are stable between 300 and 800 mg/dl, and following cholesterol stabilization, cholesterol was measured monthly. If cholesterol levels were unstable following initial stabilization phase, the diet of the animal was returned to the initial two-week measurement schedule. Monthly cholesterol levels were determined, including levels of total cholesterol, LDL, HDL, VLDL and triglycerides.
(§1) At one month after stabilization of cholersterol at 250-800 mg/dl, the animals were randomized into two experimental groups, DM/HC (hyperglycemia and hypercholesterolemia) group with no treatment and treatment group (10 mg/kg/day of SB-480848, also referred to as 1-(N-(2-(diethylamino)ethyl)-N-(4-(4-trifluoromethylphenyl)benzyl)-aminocarbonylmethyl)-2-(4-fluorobenzyl)thio-5,6-trimethylenepyrimidin-4-one). The animals were then placed into two separate rooms with control animals in one room and treated animals in the other room in order to ensure that no drug would be found in the control animals. The animals were visually inspected twice daily, the visual inspections being between 8-10 hours apart, for skin abscess, especially in the leg and foot. To be considered an abscess, the minimal abscess size was 1 mm with redness in the surrounding area. When abscesses were detected, treatment was applied. Treatment comprise assessing the size and depth of abscess, draining and cleaning the abscess of dead tissue and cells, washing with Betadine, drying and bandaging with sterile dressing, and oral regime of antibiotics. Treatment was applied daily till the infection in the open sore was cleared (absence of pus) and the open sore healed by shrinkage in size and the opening was completely closed. Cultures of the abscess were carried out to determine the pathogen responsible for the infection. […]
Two diabetic/hypercholesterolemic groups were evaluated: 1. […] In addition blood cholesterol levels were maintained between 300 and 800 mg/dl in experimental animals, this range having been determined to provide a better test model. Blood cholesterol levels were monitored in all animals on a bimonthly basis, as shown in Table 4 and adjustments were made to the fat content of the feed accordingly, as shown in Table 2. […]

[2] = Body weight and behaviour of DM/HC pigs during the study period; assay type: in vivo, pig
Description: as §1

SMILES: CCN(CC)CCN(Cc1ccc(-c2ccc(C(F)(F)F)cc2)cc1)C(=O)Cn1c(SCc2ccc(F)cc2)nc(=O)c2c1CCC2 [SB-480848, 1-(N-(2-(Diethylamino)ethyl)-N-(4-(4-trifluoromethylphenyl)benzyl)aminocarbonylmethyl)-2-(4-fluorobenzyl)thio-5,6-trimethylenepyrimidin-4-one]
- Development of skin abscess over the treatment period [1]: no pig developed any skin abscesses
- Development of skin abscess over the treatment period ([1]; listed as Lp-PLA2 inhibitor): no one developed any abscess
- Further or recurring abscess after initiation of daily inhibitor treatment in pigs that already had an abscess [1]: No further abscess developed; also recorded: remained skin abscesses-free
- Further or recurring abscess after initiation of daily inhibitor treatment in pigs that already had an abscess ([1]; listed as Lp-PLA2 inhibitor): No further abscess developed
- Average healing time of treated abscesses ([1]; pigs #948 and #963 of the treated group, abscesses developed before start of inhibitor, standard wound care): 1-2 weeks
- Responsiveness and activity compared to control animals ([2]; observed during the study period): more responsive to external stimuli
- Weight ([2]; treated animals at end of study, from a baseline of 26.9 kg, control 50.9 kg from 30.3 kg): 62.5 kg
